Patent US20250118779A1, “BIPOLAR PARAMETHOXYPHENYL CONTAINING REDOX MOLECULES” (ExxonMobil Technology and Engineering Company, priority 2023, published 2025)
Converted amounts (≈) assume the structure as drawn.

Tests used:
[1] = Cyclic voltammetry screening (3-electrode beaker cell); format: physicochemical; settings: 0.1 M TBAPF6 in acetonitrile; for E1/2^0 (half-cell potential, arithmetic average of anode and cathode peaks): 5 mM redox species, Ag|10 mM AgNO3 reference; for E1/2^0 (half-cell potential, arithmetic average of anode and cathode peaks) / redox potential, E1/2: 100 mV/s; for redox potential, E1/2 / Redox activity of the bipolar molecule (in words): 5 mM; for redox potential, E1/2: vs Ag|10 mM AgNO3 in acetonitrile (−0.09 V vs Fc|Fc+); for Ecell^0 (cell voltage) / E^1/2, anolyte (negative) redox event / E^1/2, catholyte (positive) redox event: bipolar compound 5 mM; for E^1/2, anolyte (negative) redox event / E^1/2, catholyte (positive) redox event: vs Ag|10 mM AgNO3; for Redox activity of the bipolar molecule (in words): cyclic voltammogram
[2] = Room temperature solubility in acetonitrile; format: physicochemical; settings: moles per liter of solution; for solubility: organic solvent or mixture, read-out: MeCN solubility

Compound	Ecell^0 (cell voltage) [1] [V]	E^1/2, anolyte (negative) redox event [1] [V]	E^1/2, catholyte (positive) redox event [1]	E1/2^0 (half-cell potential, arithmetic average of anode and cathode peaks) [1]	redox potential, E1/2 [1]	also measured
Cc1cccc2ccccc12 [1-methylnaphthalene, reference compound]	–	–	–	−2.909 V vs Ag|Ag^+	−2.909 V	MeCN solubility ([2]; acetonitrile solvent): miscible
COc1ccc(OCCc2cccc3ccccc23)cc1 [Entry 1]	3.82	−2.857	+0.958 V	–	–	–
COc1ccc(OCCc2ccc(/C=C/c3ccccc3)cc2)cc1 [Entry 6]	3.73	−2.632	+1.096 V	–	–	–
COc1ccc(CCOc2ccc(/C=C/c3ccccc3)cc2)cc1 [Entry 7]	–	−2.665	–	–	–	Redox activity of the bipolar molecule (in words) [1]: non-redox active molecule
c1ccc(-c2ccccc2)cc1 [biphenyl, reference compound]	–	–	–	−2.987 V vs Ag|Ag^+	−2.987 V	solubility [2]: 1730 mM (≈ 267 mg/mL)
COc1ccc(OC)cc1 [p-dimethoxybenzene, reference compound]	–	–	–	+0.967 V vs Ag|Ag^+	+0.967 V	solubility [2]: 600 mM (≈ 82.9 mg/mL)
C(=C\c1ccccc1)/c1ccccc1 [trans-stilbene, reference compound]	–	–	–	−2.571 V vs Ag|Ag^+	−2.571 V	solubility [2]: 1070 mM (≈ 193 mg/mL)

More lines, main results first:

Ecell^0 (cell voltage) [1] [V]	E^1/2, anolyte (negative) redox event [1] [V]	E^1/2, catholyte (positive) redox event [1]	Compound	E1/2^0 (half-cell potential, arithmetic average of anode and cathode peaks) [1]	redox potential, E1/2 [1]	also measured
–	–	+0.981 V	COc1ccc(OCc2cccc3ccccc23)cc1 [Entry 2]	–	–	Redox activity of the bipolar molecule (in words) [1]: non-redox active molecule
3.93	−2.976	+0.953 V	COc1ccc(OCCc2cccc(-c3ccccc3)c2)cc1 [Entry 3]	–	–	–
3.82	−1.217	+0.934 V	COc1ccc(OCCc2ccccc2-c2ccccc2)cc1 [Entry 4]	–	–	–
–	–	+0.985 V	COc1ccc(OCc2ccccc2-c2ccccc2)cc1 [Entry 5]	–	–	Redox activity of the bipolar molecule (in words) [1]: non-redox active molecule
